Laboratory results reported in patent publication US5482957A, “Azole derivatives, process for their preparation and their use” (Hoechst Aktiengesellschaft, priority 1991, dated 1996).

biological target: angiotensin II receptor; assay: Displacement of 125I- or 3H-angiotensin II from receptor preparations from various organs (liver, lung, adrenal gland, brain etc.); format: binding; conditions: Table 1; radioligand displacement, 25° C., 90 min, pH 7.4

SMILES	IC50 [nM]
CCCCc1nc(SC)c(C(=O)O)n1Cc1ccc(-c2ccccc2S(=O)(=O)NC(=O)OCC2CC=CCC2)cc1 (centres unmarked) [Example 168]	7
CCCCc1nc(SC)c(C(=O)OCC)n1Cc1ccc(-c2ccccc2S(=O)(=O)NC(=O)OCC=Cc2ccccc2)cc1 [Example 161]	57
CCCCc1nc(Cl)c(C=O)n1Cc1ccc(-c2ccccc2S(=O)(=O)NC(=O)NCc2ccc(OC)cc2)cc1 [Example 34]	1
C=CCCOC(=O)NS(=O)(=O)c1ccccc1-c1ccc(Cn2c(CCCC)nc(SC)c2C(=O)O)cc1 [Example 153]	0.88
CCCCc1nc(Cl)c(C=O)n1Cc1ccc(-c2ccccc2S(=O)(=O)NC(=O)Nc2ccc([N+](=O)[O-])cc2)cc1 [Example 22]	2000
CCCCc1nc(SC)c(C(=O)O)n1Cc1ccc(-c2ccccc2S(=O)(=O)NC(=O)NCCC2CCCN2C)cc1 (centres unmarked) [Example 108]	0.95
CCCCc1nc(SC)c(C(=O)O)n1Cc1ccc(-c2ccccc2S(=O)(=O)NC(=O)NCc2ccccc2)cc1 [Example 80]	0.69
CCCCc1nc(Cl)c(C=O)n1Cc1ccc(-c2ccccc2S(=O)(=O)NC(=O)NCCN2CCCCC2)cc1 [Example 30]	2030
CCCCc1nc(SC)c(C(=O)OCC)n1Cc1ccc(-c2ccccc2S(=O)(=O)NC(=O)NCC(=O)OC)cc1 [Example 71]	2.2
CCCCc1nc(SC)c(C(=O)OCC)n1Cc1ccc(-c2ccccc2S(=O)(=O)NC(=O)NCCc2ccccc2)cc1 [Example 66]	6.9
CCCCc1nc(SC)c(C(=O)OCC)n1Cc1ccc(-c2ccccc2S(=O)(=O)NC(=O)Nc2ccccc2)cc1 [Example 99]	26.6
